Consider 15 compounds from US12522582B2 (Gilead Sciences, Inc., priority 2022, dated 2026).

What is called pEC50 is the EC50 on a negative log10 scale, so that one unit is a factor of ten. The term pIC50 denotes the IC50 on a negative log10 scale, so that one unit is a factor of ten. As usually defined, the CC50 is the concentration at which the toxic effect on the cells reaches its halfway point.

Molecules are shown by their SMILES. pEC50, pIC50: −log10 of the molar value. Like-named read-outs stand apart in the source and are kept apart here. A value given as a limit tells only on which side of the number the result lay.

In data set [1] the test system is HSV-2 virus (MS strain). Briefly: HSV qPCR Assay (HSV replication in ARPE-19 cells). Conditions: Human alphaherpesvirus 2, ARPE-19, read-out: EC50-HSV2-qPCR. On the technique in general: In qPCR the cycle at which signal appears reflects the starting amount.
Experimental: HSV replication in the presence or absence of compounds was measured by qPCR according to the following procedure: DMSO stock compound solutions (1-10 mM) were serially diluted (2.5-fold) in DMSO in clear round bottom 96-well plates. Compounds were then diluted 1:20 in assay medium (DMEM/F12 Glutamax+2% Fetal bovine serum+1% Penicillin Streptomycin) and 10 μL of these dilutions were added to 96-well tissue culture plates for final starting concentrations between 0.5 and 5 μM.
Cells were resuspended in assay medium, counted, and cell density was adjusted to 2.8E+05 cells/ml with assay medium. […] 90 μL of the infection suspension (25,000 cells) were added to assay plates in which compounds were already added. After an overnight incubation at 37° C., cell culture medium was removed, and cell lysis was performed using the prepGEM Universal kit (MicroGEM cat #PUN1000). Specifically, 100 μL of prepGEM master mix (94.75 μL Water, 5 μL buffer, 0.25 μL enzyme stock) were added to each well and plates were incubated at room temperature for 15 minutes, with the 5 last minutes on a plate shaker. The cell lysates were then transferred to a 96-well PCR compatible microplate (Applied Biosystems, Cat #N8010560). Plates were sealed with a heat resistant plastic sealer and heated on a thermal cycler using the following conditions: 75° C. for 10 min, 95° C. for 5 minutes. Finally, plates were cooled down to room temperature with light shaking before proceeding to the qPCR setup.
Plates were sealed with a clear sealer, spun down, and qPCR reactions were performed in an Applied Biosystems Quantstudio 7 Flex instrument using the following conditions: 95° C. for 2 minutes, then 40 cycles alternating between 95° C. for 5 seconds and 60° C. for 30 seconds.
Analysis was performed using dCT method where dCT=CT (test)−CT (DMSO). Fold change was calculated using the 2^^dCT equation. This fold change was then converted to percentage relative to DMSO control (no drug). EC50s were determined by non-linear regression analysis using GraphPad Prism software.
Another data set has as its target hCAII (Homo sapiens (Human), UniProt P00918). Briefly: Carbonic Anhydrase (Esterase) Biochemical Assay, hCAII.
The test system of data set [2] is HSV-2 virus (MS strain). Briefly: HSV-2 Cellomics Assay (immunofluorescence of HSV protein gD in infected ARPE-19 cells). To be noted: Human alphaherpesvirus 2, ARPE-19, 16 h.
Experimental: Compounds were tested for their ability to inhibit HSV-2 replication by monitoring the expression of the HSV protein gD using a high-throughput immunofluorescence-based assay. 10-dose, 3-fold serial dilutions of compounds were prepared at starting concentrations of 0.2 or 2 mM in 100% DMSO. […] The final starting concentration in the assay was either 1 or 10 μM. DMSO (no compound) and pritelivir were included on each microplate as negative and positive controls, respectively.
Prior to confluence, cells were transferred to a centrifuge tube and spun for 5 minutes at 1000 rpm. Cells were resuspended in assay medium (DMEM/F-12 Glutamax, 2% FBS, 1% Penicillin-Streptomycin) and counted. Cell density was adjusted to 150,000 cells/ml and infected with HSV-2 virus (MS strain, ATCC cat #VR-540) at a MOI of 0.06 in a 50 ml conical tube for 1 hour under constant rocking. Cells were then spun for 5 minutes at 1000 rpm and the media replaced with assay medium containing either 2% FBS or 10% human serum (EMD Millipore cat #S1-100 ML). 50 μl of the infection suspension were added into microplate wells that were pre-spotted with compounds (7,500 cells per well). Plates were incubated for 16 hours at 37° C.
After a 30-minute incubation at room temperature, plates were washed 4 times with 100 μl/well of PBS using a Biotek plate washer. […] Plates were washed 4 times again and 50 μl of DPBS were added to all wells prior to sealing the plates with a black adhesive seal. Fluorescence was measured on a Cellomics plate reader.
Data analysis was carried out using the Thermo Scientific HCS Studio software. Briefly, cells were identified using the DAPI nuclear stain and thresholds were set to filter cells out based on shape and size. A second threshold based on green fluorescence intensity (detection of HSV-2 gD) was set to identify HSV-2 infected cells. Data was reported as the average fluorescence intensity of HSV-2 infected cells.
Data set [3] in a line: MT-4 CC50 Assay (CellTiter Glo). The data set is classed as cell-based. To be noted: human, MT-4 cells, luminescence, read-out: CC50-MT4. As to the method: Compounds were tested in 384-well plates: 18 compounds in duplex. Compounds were diluted in 7 points, 3-fold with DMSO by Bravo. Assay plate, which contains 20 uL medium with compounds, was seeded 2000 MT-4 cells in 20 uL/well by Multi-drop to start the assay. The plate was incubated at 37° C. for 5 days. On 6th day, the CellTiter Glo 40 uL was added in each well. Luminescence was read by Victor II.
For orientation: ATP-based viability assays read luminescence as a measure of living cells.

Data set [4] relates to human cryopreserved hepatocytes. Briefly: Stability Assay in Cryopreserved Hepatocytes (human). Conditions: 1 μM, calculated from half-life using the well-stirred model. It is filed as in vitro ADME. As to the method:
Test compound was incubated at 1 μM with either rat or human cryopreserved hepatocytes (BioIVT, Westbury, NY) up to 6 hours at 37° C. in a 24-well plate format (1×10^6 cells/mL per well). At specified time points, samples were transferred to a 96-well plate and quenched with 2 volumes of a solution containing 90% acetonitrile 10% methanol 0.1% formic acid and internal standard. Sample plate was centrifuged at 3200 rpm for 15 min and supernatants transferred to a new plate containing half volume of water. The resulting solution was analyzed by LC-MS/MS. Data (analyte to internal standard peak area ratio) was plotted on a semi-log scale and fitted using an exponential fit. Assuming first order kinetics, the half-life (t1/2) and rate of metabolism were determined. Predicted hepatic clearance was calculated from the half-life using the well-stirred model.

Another data set has as its target hCAI (Homo sapiens (Human), UniProt P00915). Briefly: Carbonic Anhydrase (Esterase) Biochemical Assay, hCAI.
Where [5] appears, read: read-out: IC50-hCAII, 4-nitrophenyl acetate hydrolysis, 60 min.
Where [6] appears, read: read-out: EC50-HSV2-10% Human Serum.
The mark [7] stands for this setting: read-out: IC50-hCAI, 4-nitrophenyl acetate hydrolysis, 60 min.

Chain of hCAI (P00915 whole entry): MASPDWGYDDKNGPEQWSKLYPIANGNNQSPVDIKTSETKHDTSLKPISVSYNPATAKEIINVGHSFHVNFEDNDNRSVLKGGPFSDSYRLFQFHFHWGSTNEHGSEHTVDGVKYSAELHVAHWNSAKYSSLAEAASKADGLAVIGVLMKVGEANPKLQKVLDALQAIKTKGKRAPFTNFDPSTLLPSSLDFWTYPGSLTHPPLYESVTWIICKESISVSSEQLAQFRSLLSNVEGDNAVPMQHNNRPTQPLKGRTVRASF
Experimental for hCAII: 10-dose, 3-fold serial dilutions of compounds were prepared at starting concentrations of 10 mM in 100% DMSO. […] Final starting concentration in the assay was 50 μM. DMSO (no compound) and acetazolamide were included on each microplate as negative and positive controls, respectively.
Following a preincubation at room temperature for 15 minutes, 20 μl of a 4 mM solution of 4NPA substrate (Sigma cat #N8130) in assay buffer were added to start the reaction.

Turning to `NS(=O)(=O)c1cc2c(cc1Cl)CCN2C(=O)C1Cc2ccc(-c3ccccn3)cc2C1` (stereo not drawn) [Example 5], the pEC50 in the data set on HSV-2 virus (MS strain) [1] is 7.96; in the data set on HSV-2 virus (MS strain) [2] (setting [6]), at most 4.60; in the data set on HSV-2 virus (MS strain) [2] (read-out: EC50-HSV2-FBS), 7.46. The pIC50 on hCAII (setting [5]) is at most 4.60.
As to `C[C@@H]1Cc2ccc(S(N)(=O)=O)cc2N1C(=O)[C@@H]1Cc2ccc(-c3ccccn3)cc2C1` [Example 15], the CC50 at 5 days in data set [3] was at least 50000 nM. Moreover, in data set [4], the “Predicted human hepatic clearance” value is 0.933 mL/min/kg. The pEC50 with HSV-2 virus (MS strain) [1] was 8.31; with HSV-2 virus (MS strain) [2] (setting [6]) it was 6.56; in the data set on HSV-2 virus (MS strain) [2] (read-out: EC50-HSV2-FBS), 7.55.
On the same counts, the results for `C[C@@H]1Cc2cc(F)c(S(N)(=O)=O)cc2N1C(=O)[C@@H]1Cc2ccc(-c3ccccn3)cc2C1` [Example 35] are 24000 nM, 0.917 mL/min/kg, 8.96, 7.24 and 8.15.
On the same counts, the results for `C[C@@H]1Cc2cc(F)c(S(N)(=O)=O)cc2N1C(=O)[C@H]1Cc2cc(-c3ccccn3)ccc2O1` [Example 44] are at least 10000 nM, 0.83 mL/min/kg, 9.00, 6.49 and 7.85.
For `NS(=O)(=O)c1cc2c(cc1F)CCN2C(=O)[C@@H]1Cc2ccc(-c3ccccn3)cc2O1` [Example 65, (S)-5-fluoro-1-(6-(pyridin-2-yl)-2,3-dihydrobenzofuran-2-carbonyl)indoline-6-sulfonamide] the same measures were at least 10000 nM, 0.83 mL/min/kg, 8.85, 6.83 and 7.80.
As for `NS(=O)(=O)c1ccc2c(c1)N(C(=O)C1Cc3ccc(-c4nccnc4F)cc3C1)CC2` (stereo not drawn) [Example 73], the values for the pEC50 in the data set with HSV-2 virus (MS strain) [1], with HSV-2 virus (MS strain) [2] (setting [6]) and with HSV-2 virus (MS strain) [2] (read-out: EC50-HSV2-FBS) were 7.76, 5.22 and 6.89, respectively. The pIC50 at hCAII (setting [5]) was at most 4.60.
With `NS(=O)(=O)c1ccc2c(c1)N(C(=O)C1Cc3ccc(-c4cnccn4)cc3C1)CC2` (stereo not drawn) [Example 74], the values for the pEC50 in the data set with HSV-2 virus (MS strain) [1], with HSV-2 virus (MS strain) [2] (setting [6]) and in the data set on HSV-2 virus (MS strain) [2] (read-out: EC50-HSV2-FBS) were 8.08, 4.93 and 7.23, respectively. For the same compound, the pIC50 at hCAII (setting [5]) is at most 4.60.
On to `NS(=O)(=O)c1ccc2c(c1)N(C(=O)C1Cc3ccc(-c4cccc(F)n4)cc3C1)CC2` (stereo not drawn) [Example 75], for which the negative-log EC50 (pEC50) in the data set on HSV-2 virus (MS strain) [1] is 7.84; in the data set with HSV-2 virus (MS strain) [2] (read-out: EC50-HSV2-FBS), 7.49. Besides, at hCAII (setting [5]), the pIC50 is at most 4.60.
Regarding `NS(=O)(=O)c1ccc2c(c1)N(C(=O)C1Cc3ccc(-c4ncccc4F)cc3C1)CC2` (stereo not drawn) [Example 76], the CC50 at 5 days in data set [3] worked out at 2500 nM. The pEC50 in the data set with HSV-2 virus (MS strain) [1] was 7.66; in the data set on HSV-2 virus (MS strain) [2] (read-out: EC50-HSV2-FBS), 6.97. In addition, at hCAII (setting [5]), the pIC50 was at most 4.60.
On to `NS(=O)(=O)c1ccc2c(c1)N(C(=O)[C@@H]1Cc3ccc(-c4ccccn4)cc3C1)CC2` [Example 81, (R)-1-(5-(pyridin-2-yl)-2,3-dihydro-1H-indene-2-carbonyl)indoline-6-sulfonamide], for which the CC50 at 5 days in data set [3] was at least 50000 nM. Further, the “Predicted human hepatic clearance” value in data set [4] is 2.33 mL/min/kg. The pEC50 in the data set with HSV-2 virus (MS strain) [1] was 8.72; in the data set on HSV-2 virus (MS strain) [2] (setting [6]), at most 4.60; in the data set on HSV-2 virus (MS strain) [2] (read-out: EC50-HSV2-FBS), 7.70. The pIC50 on hCAII (setting [5]) is at most 4.60.
On to `C[C@H]1c2ccc(-c3ccccn3)cc2C[C@@H]1C(=O)N1CCc2ccc(S(N)(=O)=O)cc21` [Example 94, 1-((1R,2S)-1-methyl-5-(pyridin-2-yl)-2,3-dihydro-1H-indene-2-carbonyl)indoline-6-sulfonamide], for which, in data set [3], the CC50 at 5 days was at least 50000 nM. The values for the pEC50 in the data set on HSV-2 virus (MS strain) [1], in the data set with HSV-2 virus (MS strain) [2] (setting [6]) and in the data set on HSV-2 virus (MS strain) [2] (read-out: EC50-HSV2-FBS) were 8.41, 6.71 and 7.31, respectively. Further, on hCAII (setting [5]), the pIC50 is at most 4.30.
As for `C[C@H]1c2ccc(-c3ccccn3)cc2C[C@@H]1C(=O)N1CCc2cc(F)c(S(N)(=O)=O)cc21` [Example 97, 5-fluoro-1-((1R,2S)-1-methyl-5-(pyridin-2-yl)-2,3-dihydro-1H-indene-2-carbonyl)indoline-6-sulfonamide], the CC50 at 5 days in data set [3] is at least 50000 nM. Also, the pEC50 was 8.89 in the data set on HSV-2 virus (MS strain) [1], 7.25 with HSV-2 virus (MS strain) [2] (setting [6]) and 7.85 with HSV-2 virus (MS strain) [2] (read-out: EC50-HSV2-FBS). In addition, the negative logarithm of the IC50 (pIC50) on hCAI and against hCAII was at most 4.30 each time.
With `NS(=O)(=O)c1cc2c(cc1F)C[C@H](C(F)F)N2C(=O)[C@@H]1Cc2ccc(-c3ccccn3)cc2C1` [Example 127, (R)-2-(difluoromethyl)-5-fluoro-1-((R)-5-(pyridin-2-yl)-2,3-dihydro-1H-indene-2-carbonyl)indoline-6-sulfonamide], the “Predicted human hepatic clearance” value in data set [4] was 5.67 mL/min/kg. The figures for the pEC50 in the data set with HSV-2 virus (MS strain) [1], in the data set with HSV-2 virus (MS strain) [2] (setting [6]) and with HSV-2 virus (MS strain) [2] (read-out: EC50-HSV2-FBS) were 7.23, 5.26 and 6.26, respectively. The pIC50 on hCAI (setting [7]) was 5.38; at hCAII (setting [5]) it was 5.61.
Turning to `NS(=O)(=O)c1cc2c(cc1F)C[C@@H](C(F)F)N2C(=O)[C@@H]1Cc2ccc(-c3ccccn3)cc2C1` [Example 128, (S)-2-(difluoromethyl)-5-fluoro-1-((R)-5-(pyridin-2-yl)-2,3-dihydro-1H-indene-2-carbonyl)indoline-6-sulfonamide], in data set [4], the “Predicted human hepatic clearance” value was 3.5 mL/min/kg. For the same compound, the pEC50 in the data set with HSV-2 virus (MS strain) [1] was 8.85; in the data set with HSV-2 virus (MS strain) [2] (setting [6]), 7.20; in the data set on HSV-2 virus (MS strain) [2] (read-out: EC50-HSV2-FBS) it was 8.08. Also, the pIC50 on hCAI (setting [7]) is at most 4.30; at hCAII (setting [5]) it was 5.13.
As for `C[C@H]1c2ccc(-c3ccccn3)cc2C[C@@H]1C(=O)N1C[C@@H](C(F)(F)F)c2cc(F)c(S(N)(=O)=O)cc21` [Example 138, (S)-5-fluoro-1-((1R,2S)-1-methyl-5-(pyridin-2-yl)-2,3-dihydro-1H-indene-2-carbonyl)-3-(trifluoromethyl)indoline-6-sulfonamide], the “Predicted human hepatic clearance” value in data set [4] is 1 mL/min/kg. Besides, the pEC50 with HSV-2 virus (MS strain) [1] is 8.70; with HSV-2 virus (MS strain) [2] (setting [6]), 6.74; in the data set on HSV-2 virus (MS strain) [2] (read-out: EC50-HSV2-FBS) it was 7.63.
